The record followed here is patent US20040023994A1 (priority 2002, published 2004).

One data set concerns DU-145. In kind it is cell-based. As to conditions: DU-145, Prostate, 48 h.
The subject of another data set is HL-60(TB). Description: cells. The conditions noted are these: Homo sapiens, HL-60, 48 h.
In a further data set the test system is TK-10. In kind it is cell-based. As to conditions: TK-10, Renal, 48 h.
In a further data set the test system is NCI-H522. The conditions noted are these: NCI-H522, Non-Small Cell Lung, 48 h.
Setting [1] is: Homo sapiens, read-out: LC50 (the source's name).

By TGI is commonly meant the concentration at which net growth stops. For orientation: GI50 means the concentration that inhibits growth by half. For `CC(=O)C=CSc1ncnc2nc[nH]c12` [cis-AVTP, 6-(2-acetylvinylthio) purine], the TGI came out at 3.97 µM with DU-145 and 0.64 µM in the data set with TK-10. The GI50 with DU-145 (Homo sapiens) came to 1320 nM; with HL-60(TB) it was 490 nM; with TK-10 (Homo sapiens), 30 nM. Also, the CC50 was 24.4 µM with DU-145 (setting [1]), > 100 µM in the data set with HL-60(TB) (read-out: LC50) and 13.9 µM in the data set with TK-10 (setting [1]).
As to `CC(=O)C=CSc1nc(N)nc2nc[nH]c12` [trans-AVTG, 6-(2-acetylvinylthio) guanine], the GI50 came to 370 nM with MALME-3M (Melanoma, 48 h) and 20 nM with NCI-H522. In addition, the TGI was 3.07 µM with MALME-3M (Melanoma, 48 h) and 0.05 µM in the data set with NCI-H522. Moreover, the CC50 in the data set with MALME-3M (read-out: LC50, Melanoma, 48 h) amounted to 29.3 µM; in the data set on NCI-H522 (read-out: LC50), 8.28 µM.
